Values quoted from earlier work as cited in PMC3583338 (Clinical pharmacology and therapeutics, 2008).

For `CC(C)c1nc(CN(C)C(=O)N[C@H](C(=O)N[C@@H](Cc2ccccc2)C[C@H](O)[C@H](Cc2ccccc2)NC(=O)OCc2cncs2)C(C)C)cs1` [ritonavir], the “effect on OATP1B1” value (OATP1B1) is listed as “little or no effect”, the “P-gp mRNA expression” value (P-gp) is listed as “moderately induced” and the “inhibition of OATP-mediated fexofenadine transport” value (OATP) is listed as 13%. The “effect on OATP1B3” value (OATP1B3) was “little or no effect”.
